Assay results as given in patent publication US20240226228A1, “ANTIMICROBIAL PEPTOID HAVING IMPROVED SELECTIVITY AND ANTIMICROBIAL COMPOSITION COMPRISING SAME” (priority 2021, published 2024).
≈ marks a conversion by molar mass, not a printed value. Where two headings read alike, the source gives them in different places. Where a SMILES comes first, the peptide text is derived from it. [ ]: non-standard residue; d: D form. Gly(N(CH2)2(3-indolyl)) = O=C(O)CNCCc1c[nH]c2ccccc12; Nspe = C[C@H](NCC(=O)O)c1ccccc1; Nphe = O=C(O)CNCc1ccccc1; Nlys = NCCCCNCC(=O)O

What was measured:
red blood cells = assay: Hemolysis assay; assay type: cell-based, Sprague-Dawley mouse
Method in brief: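 Peptoid is mixed with 10% (v/v) PBS-washed erythrocytes (male Sprague-Dawley […], 13 weeks) and held 1 h at 37 °C. Hemolysis is calculated from 540 nm absorbance of the supernatant, with PBS as 0% and Triton X-100 as 100%.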

E. coli ATCC25922 = system: E. coli ATCC25922
Method in brief: (§1)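 Cation-adjusted MHB2 cultures (18 h, subcultured 4 h) adjusted to 2×10^5–5×10^5 CFU/mL in medium with 0.02% BSA and 0.001% acetic acid.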

S. aureus ATCC 25923 = system: S. aureus ATCC 25923
Method in brief: as §1

[1] = Tables 11-13, 24 hours at 37° C., maximum concentration 25 μM
[2] = Table 18, TFA salt vs counter ion-substituted (HCl, AcOH) peptoids

| Compound | HC10 (red blood cells) | HC50 (red blood cells) | Hmax (100 μM) (red blood cells) [%] | MIC E. coli ATCC25922 (E. coli ATCC25922; [1]) [µM] | MIC S. aureus ATCC 25923 (S. aureus ATCC 25923; [1]) [µM] | MIC E. coli ATCC25922 (E. coli ATCC25922; [2]) [µM] | MIC S. aureus ATCC 25923 (S. aureus ATCC 25923; [2]) [µM] |
| --- | --- | --- | --- | --- | --- | --- | --- |
| C[C@@H](c1ccccc1)N(CC(N)=O)C(=O)CN(C(=O)CN(CCCCN)C(=O)CN(C(=O)CN(C(=O)CN(CCCCN)C(=O)CN(CCc1c[nH]c2ccccc12)C(=O)CN(C(=O)CN(CCCCN)C(=O)CN(C(=O)CN(CCCCN)C(=O)CNCCCCN)[C@@H](C)c1ccccc1)[C@@H](C)c1ccccc1)[C@@H](C)c1ccccc1)[C@@H](C)c1ccccc1)[C@@H](C)c1ccccc1 [Peptoid 27] | >100/>100 μM | >100/>100 μM | 5.9 ± 0.2 | 25 (≈ 45.6 µg/mL) | 3.1 (≈ 5.66 µg/mL) | – | – |
| C[C@@H](c1ccccc1)N(CC(=O)N(CCCCN)CC(=O)N(CCCCN)CC(=O)N(CCc1c[nH]c2ccccc12)CC(=O)N(CCc1c[nH]c2ccccc12)CC(N)=O)C(=O)CN(CCCCN)C(=O)CN(C(=O)CN(C(=O)CN(CCCCN)C(=O)CN(C(=O)CN(C(=O)CNCCCCN)[C@@H](C)c1ccccc1)[C@@H](C)c1ccccc1)[C@@H](C)c1ccccc1)[C@@H](C)c1ccccc1 [Peptoid 28] (H-[Nlys][Nspe][Nspe][Nlys][Nspe][Nspe][Nlys][Nspe][Nlys][Nlys][Gly(N(CH2)2(3-indolyl))][Gly(N(CH2)2(3-indolyl))]-NH2) | >100/>100 μM | >100/>100 μM | 8.9 ± 1.4 | 12.5 (≈ 23.3 µg/mL) | 6.3 (≈ 11.7 µg/mL) | – | – |
| C[C@@H](c1ccccc1)N(CC(=O)N(CCCCN)CC(=O)N(CC(=O)N(CC(=O)N(CCCCN)CC(=O)N(CCc1c[nH]c2ccccc12)CC(=O)N(CCc1c[nH]c2ccccc12)CC(N)=O)[C@@H](C)c1ccccc1)[C@@H](C)c1ccccc1)C(=O)CN(CCCCN)C(=O)CN(CCCCN)C(=O)CN(C(=O)CN(C(=O)CNCCCCN)[C@@H](C)c1ccccc1)[C@@H](C)c1ccccc1 [Peptoid 30] (H-[Nlys][Nspe][Nspe][Nlys][Nlys][Nspe][Nlys][Nspe][Nspe][Nlys][Gly(N(CH2)2(3-indolyl))][Gly(N(CH2)2(3-indolyl))]-NH2) | >100/>100 μM | >100/>100 μM | 8.4 ± 0.5 | 12.5 (≈ 23.3 µg/mL) | 3.1 (≈ 5.78 µg/mL) | – | – |
| C[C@@H](c1ccccc1)N(CC(=O)N(CCCCN)CC(=O)N(CC(=O)N(CC(=O)N(CCCCN)CC(=O)N(CC(=O)N(CC(=O)N(CCCCN)CC(=O)N(CCc1c[nH]c2ccccc12)CC(=O)N(CCc1c[nH]c2ccccc12)CC(N)=O)[C@@H](C)c1ccccc1)[C@@H](C)c1ccccc1)[C@@H](C)c1ccccc1)[C@@H](C)c1ccccc1)C(=O)CN(CCCCN)C(=O)CNCCCCN [Peptoid 31] (H-[Nlys][Nlys][Nspe][Nlys][Nspe][Nspe][Nlys][Nspe][Nspe][Nlys][Gly(N(CH2)2(3-indolyl))][Gly(N(CH2)2(3-indolyl))]-NH2) | 59.0 µM | > 100 µM | 18.4 ± 5.0 | 6.3 (≈ 11.7 µg/mL) | 3.1 (≈ 5.78 µg/mL) | – | – |
| C[C@@H](c1ccccc1)N(CC(N)=O)C(=O)CN(C(=O)CN(CCCCN)C(=O)CN(C(=O)CN(CCCCN)C(=O)CN(CCCCN)C(=O)CN(C(=O)CN(C(=O)CN(CCCCN)C(=O)CN(CCc1c[nH]c2ccccc12)C(=O)CN(CCc1c[nH]c2ccccc12)C(=O)CNCCCCN)[C@@H](C)c1ccccc1)[C@@H](C)c1ccccc1)[C@@H](C)c1ccccc1)[C@@H](C)c1ccccc1 [Peptoid 33] | >100/>100 μM | >100/>100 μM | 5.0 ± 0.2 | 12.5 (≈ 23.3 µg/mL) | 3.1 (≈ 5.78 µg/mL) | – | – |
| C[C@@H](c1ccccc1)N(CC(N)=O)C(=O)CN(C(=O)CN(CCCCN)C(=O)CN(C(=O)CN(C(=O)CN(CCCCN)C(=O)CN(C(=O)CN(CCCCN)C(=O)CN(CCCCN)C(=O)CN(CCc1c[nH]c2ccccc12)C(=O)CN(CCc1c[nH]c2ccccc12)C(=O)CNCCCCN)[C@@H](C)c1ccccc1)[C@@H](C)c1ccccc1)[C@@H](C)c1ccccc1)[C@@H](C)c1ccccc1 [Peptoid 34] | >100/>100 μM | >100/>100 μM | 8.5 ± 1.1 | 25 (≈ 46.6 µg/mL) | 3.1 (≈ 5.78 µg/mL) | – | – |
| C[C@@H](c1ccccc1)N(CC(=O)N(CCCCN)CC(=O)N(CC(=O)N(CC(=O)N(CCCCN)CC(=O)N(CC(=O)N(CC(=O)N(CCCCN)CC(N)=O)[C@@H](C)c1ccccc1)[C@@H](C)c1ccccc1)[C@@H](C)c1ccccc1)[C@@H](C)c1ccccc1)C(=O)CN(C(=O)CN(CCCCN)C(=O)CN(CCc1c[nH]c2ccccc12)C(=O)CNCCc1c[nH]c2ccccc12)[C@@H](C)c1ccccc1 [Peptoid 37-1] (H-[Gly(N(CH2)2(3-indolyl))][Gly(N(CH2)2(3-indolyl))][Nlys][Nspe][Nspe][Nlys][Nspe][Nspe][Nlys][Nspe][Nspe][Nlys]-NH2) | 14.4 µM | 56.5 µM | 86.6 ± 5.7 | – | – | 6.3 | 3.1 |
| C[C@@H](c1ccccc1)N(CC(=O)N(CCCCN)CC(=O)N(CC(=O)N(CC(=O)N(CCCCN)CC(=O)N(CC(=O)N(CC(=O)N(CCCCN)CC(N)=O)[C@@H](C)c1ccccc1)[C@@H](C)c1ccccc1)[C@@H](C)c1ccccc1)[C@@H](C)c1ccccc1)C(=O)CN(C(=O)CN(CCCCN)C(=O)CN(CCc1c[nH]c2ccccc12)C(=O)CNCCc1c[nH]c2ccccc12)[C@@H](C)c1ccccc1 [Peptoid 37-2] (H-[Gly(N(CH2)2(3-indolyl))][Gly(N(CH2)2(3-indolyl))][Nlys][Nspe][Nspe][Nlys][Nspe][Nspe][Nlys][Nspe][Nspe][Nlys]-NH2) | 12.5 µM | 26.0 µM | 98.9 ± 8.0 | – | – | 6.3 | 1.6 |
| C[C@@H](c1ccccc1)N(CC(=O)N(CCCCN)CC(=O)N(CCCCN)CC(=O)N(CC(=O)N(CC(=O)N(CCCCN)CC(=O)N(CC(=O)N(CC(=O)N(CCCCN)CC(N)=O)[C@@H](C)c1ccccc1)[C@@H](C)c1ccccc1)[C@@H](C)c1ccccc1)[C@@H](C)c1ccccc1)C(=O)CN(CCCCN)C(=O)CN(CCc1c[nH]c2ccccc12)C(=O)CNCCc1c[nH]c2ccccc12 [Peptoid 38] (H-[Gly(N(CH2)2(3-indolyl))][Gly(N(CH2)2(3-indolyl))][Nlys][Nspe][Nlys][Nlys][Nspe][Nspe][Nlys][Nspe][Nspe][Nlys]-NH2) | >100/>100 μM | >100/>100 μM | 5.9 ± 0.5 | 12.5 (≈ 23.3 µg/mL) | 6.3 (≈ 11.7 µg/mL) | – | – |
| C[C@@H](c1ccccc1)N(CC(=O)N(CCCCN)CC(=O)N(CC(=O)N(CC(=O)N(CCCCN)CC(=O)N(CCCCN)CC(=O)N(CC(=O)N(CCCCN)CC(=O)N(CCc1c[nH]c2ccccc12)CC(=O)N(CCc1c[nH]c2ccccc12)CC(N)=O)Cc1ccccc1)[C@@H](C)c1ccccc1)[C@@H](C)c1ccccc1)C(=O)CN(C(=O)CNCCCCN)[C@@H](C)c1ccccc1 [Peptoid 39] (H-[Nlys][Nspe][Nspe][Nlys][Nspe][Nspe][Nlys][Nlys][Nphe][Nlys][Gly(N(CH2)2(3-indolyl))][Gly(N(CH2)2(3-indolyl))]-NH2) | 100/>100 μM | 100/>100 μM | 10.2 ± 0.3 | 25 (≈ 46.3 µg/mL) | 6.3 (≈ 11.7 µg/mL) | – | – |
| C[C@@H](c1ccccc1)N(CC(=O)N(CCCCN)CC(=O)N(CCc1c[nH]c2ccccc12)CC(=O)N(CCc1c[nH]c2ccccc12)CC(N)=O)C(=O)CN(CCCCN)C(=O)CN(CCCCN)C(=O)CN(Cc1ccccc1)C(=O)CN(Cc1ccccc1)C(=O)CN(CCCCN)C(=O)CN(C(=O)CN(C(=O)CNCCCCN)[C@@H](C)c1ccccc1)[C@@H](C)c1ccccc1 [Peptoid 40] (H-[Nlys][Nspe][Nspe][Nlys][Nphe][Nphe][Nlys][Nlys][Nspe][Nlys][Gly(N(CH2)2(3-indolyl))][Gly(N(CH2)2(3-indolyl))]-NH2) | >100/>100 μM | >100/>100 μM | 8.9 ± 0.2 | 12.5 (≈ 23 µg/mL) | 12.5 (≈ 23 µg/mL) | – | – |
| C[C@@H](c1ccccc1)N(CC(=O)N(CCCCN)CC(=O)N(CCc1c[nH]c2ccccc12)CC(=O)N(CCc1c[nH]c2ccccc12)CC(N)=O)C(=O)CN(CCCCN)C(=O)CN(CCCCN)C(=O)CN(C(=O)CN(C(=O)CN(CCCCN)C(=O)CN(Cc1ccccc1)C(=O)CN(Cc1ccccc1)C(=O)CNCCCCN)[C@@H](C)c1ccccc1)[C@@H](C)c1ccccc1 [Peptoid 41] (H-[Nlys][Nphe][Nphe][Nlys][Nspe][Nspe][Nlys][Nlys][Nspe][Nlys][Gly(N(CH2)2(3-indolyl))][Gly(N(CH2)2(3-indolyl))]-NH2) | >100/>100 μM | >100/>100 μM | 7.1 ± 0.1 | 25 (≈ 45.9 µg/mL) | 6.3 (≈ 11.6 µg/mL) | – | – |
| C[C@@H](c1ccccc1)N(CC(=O)N(CCCCN)CC(=O)N(CC(=O)N(CC(=O)N(CCCCN)CC(=O)N(CC(=O)N(CC(=O)N(CCCCN)CC(=O)N(CC(=O)N(CC(N)=O)Cc1ccccc1)Cc1ccccc1)[C@@H](C)c1ccccc1)[C@@H](C)c1ccccc1)[C@@H](C)c1ccccc1)[C@@H](C)c1ccccc1)C(=O)CN(C(=O)CNCCCCN)[C@@H](C)c1ccccc1 [Peptoid 44] (H-[Nlys][Nspe][Nspe][Nlys][Nspe][Nspe][Nlys][Nspe][Nspe][Nlys][Nphe][Nphe]-NH2) | 6.3 µM | 28.6 µM | 97.9 ± 3.7 | 6.3 (≈ 11.3 µg/mL) | 1.6 (≈ 2.87 µg/mL) | – | – |
